Assay results as given in patent US20220079956A1, “MAINTENANCE OF AGING MUSCLE TISSUE” (BIOPHYTIS SA, priority 2011, published 2022).
Several values for one entry are separate records, joined by “and”; a condition that tells them apart may be missing. Equal values may be shown once. Read-outs that look alike come from different tables or passages of the source.

How the values were obtained:
UCP3 gene transcripts = assay: Quantity of UCP3 gene transcripts (mRNA) in muscle of high-fat diet mice; assay type: in vivo, male C57BL/6J mice; conditions: high-fat diet 3 weeks, 5 mg of 20E per kg body weight per day; vs high-fat diet alone
Text: (§1) The effect of phytoecdysones is observed on mice subjected to a high-fat diet during 3 weeks.
(§2) The HF high-fat diet involved the intake of large amounts of fat in the form of lard. The mice selected for the study were male C57BL/6J mice, 6 weeks old at the start of the experiment.
(§3) The mice in the study were grouped according to the dietary regimes and treatments to which they were subjected: normal or control diet (LF), high-fat diet (HF), high-fat diet supplemented with quinoa extract (HFQ) and high-fat diet supplemented with pure 20-hydroxyecdysone (HF20E).
(§4) The mice were subjected to the dietary regimes detailed in Table 1 below for three weeks and the mice fed a high-fat diet were treated in parallel with pure 20E or extract A (2% 20E). The concentration of 20E was adjusted to equal 40 mg per kg of food.
(§5) In light of the average food intake of the mice, the dose of 20E administered corresponded in the two treatments to 5 mg of 20E per kg of body weight per day. The food was supplied in excess every day for both dietary regimes and all three treatments. […]
(§6) FIG. 4 illustrates a graph plotting quantities of gene transcripts (mRNA), as measured in the muscle, against diet and associated treatment. The quantities have been normalized with respect to the quantities measured in the muscles of mice fed the control diet.

[1] = tested on: mice subjected to a high-fat diet; assay: Mice subjected to a high-fat diet for 3 weeks: carcass weight, quadriceps composition, energy balance; assay type: in vivo, male C57BL/6J mice; conditions: high-fat diet 3 weeks
Procedure: as §1, §2
Mice not subjected to a high fat diet, forming a normal diet control group, were tested in parallel.
as §3, §4
In light of the average food intake of the mice, the dose of 20E administered corresponded in the two treatments to 5 mg of 20E per kg of body weight per day. The food was supplied in excess every day for both dietary regimes and all three treatments. On average, 40 g of food was provided per cage per day or 6.5 g of food per mouse per day.
Table 1 below sets out in greater detail the composition of the diets to which mice were subjected:
Following sacrifice, aliquots of muscle (quadriceps) were collected for analysis. FIG. 2 illustrates a graph plotting muscle triglyceride content against diet and associated treatment.

UCP2 gene transcripts = assay: Quantity of UCP2 gene transcripts (mRNA) in muscle of high-fat diet mice; assay type: in vivo, male C57BL/6J mice; conditions: high-fat diet 3 weeks, 5 mg of 20E per kg body weight per day; vs high-fat diet alone
Text: as §1, §2, §3, §4, §5, §6

[2] = tested on: CPT-1 intracellular fatty acid transporter gene transcripts; assay: Quantity of CPT-1 gene transcripts (mRNA) in muscle of high-fat diet mice; assay type: in vivo, male C57BL/6J mice; conditions: high-fat diet 3 weeks, 5 mg of 20E per kg body weight per day
Text: as §1, §2, §3, §4, §5, §6

C2C12 cells = assay: Protein synthesis in differentiated C2C12 myotubes by [3H]-leucine incorporation; assay type: cell-based, mouse; conditions: 0.1 μM, vs untreated control
Text: FIGS. 11A-B are graph of effects of 20-hydroxyecdysone (20E) on protein synthesis and myostatin gene expression in C2C12 cells. […] Results are shown as means±SEM, ***p<0.001, **p<0.01, *p<0.05 vs untreated control (Kruskal-Wallis followed by a Dunn's test).

[3] = tested on: myostatin gene expression; assay: Myostatin gene expression in C2C12 myotubes by qRT-PCR; assay type: cell-based, mouse; conditions: 6 hours, vs untreated control
Procedure: In FIG. 11B, C2C12 mouse myoblasts were differentiated for 6 days into myotubes. They were then treated for 6 hours with concentrations of 20E ranging from 0.001 to 10 μM. Myostatin gene expression was detected by qRT-PCR. Results are shown as means±SEM with ***p<0.001, **p<0.01, *p<0.05 vs untreated control (one-way ANOVA with Dunnett's test compared to untreated control).

[4] = Single ascending dose study, clinical Phase 1: plasma levels; assay type: in vivo; conditions: human; for Cmax: plasma, SAD, read-out: Maximal plasma concentration (Cmax)
Procedure: A single ascending BIO101 dose study during clinical Phase 1 trial is performed. […] This low concentration is clearly below optimal conditions (with only 26 and 32% of efficacy for two selected markers of differentiation, see FIGS. 10A-B) and is not responsible for significant efficacy in terms of anabolism (FIGS. 11A-B).
FIG. 12A-B are graphs of plasma levels of BIO101 in human following 100, 350 and 700 mg administration.

[5] = Multiple ascending dose study, clinical Phase 1: adverse events; assay type: in vivo; conditions: human, daily administrations of 900 mg, MAD
Procedure: A multiple ascending BIO101 dose study was performed during clinical Phase 1 trial. […] For this reason, in clinical Phase 2, the daily dose of 900 mg was not tested.

C2C12 myoblast = C2C12 myoblast differentiation (fusion index, number of nuclei per myotube); assay type: cell-based, mouse; conditions: for EC50: C2C12 myoblasts, 6-day differentiation in the presence of the drug, read-out: EC50 for number of nuclei per myotube increase
Procedure: FIGS. 10A-B are graphs of BIO101 efficacy 50% value (EC50) determination on myoblasts differentiation. The fusion index and number of nuclei per myotubes were measured after 6-day differentiation in the presence of the drug.
The fusion index and the number of nuclei per myotube are recognized parameters of myoblast differentiation. The fusion index was calculated as the ratio of nuclei in fused MHC-positive cells 2 nuclei per cells) to the total nuclei number. […] EC50 values (efficacious doses 50%) for each parameter were calculated by the integration of effect vs [BIO101] curves.

sarcopenic patients = assay: Clinical trial in sarcopenic patients: gait speed in 400 meters walking test; assay type: in vivo, human; conditions: 6 months; for improvement in gait speed in 400 meters walking test compared to placebo: 700 mg daily
Text: After 6 months of treatment, an improvement of 0.09 m/s in the full analyze set (FAS) population and 0.10 m/s in the per protocol (PP) population (treatment effect significant, p<0.01) were observed. This effect of Sarconeos (BIO101) corresponds to the minimal clinically important difference (MCID) in sarcopenia (0.1 m/s), associated with a reduction in mobility and disability in elderly (Perera et al. 2006).

In the case of `CC(C)(O)CC[C@@H](O)[C@](C)(O)[C@H]1CC[C@@]2(O)C3=CC(=O)[C@@H]4C[C@@H](O)[C@@H](O)C[C@]4(C)[C@H]3CC[C@]12C` [20E, 20-hydroxyecdysone], the “quantity of UCP3 gene transcripts in muscle” value (UCP3 gene transcripts) is reported as “increase”, the “energy expenditure higher than high-fat diet alone” value ([1]; 5 mg of 20E per kg body weight per day) is reported as 9% and the “food intake (energy, kcal)” value ([1]; 5 mg of 20E per kg body weight per day, compared with animals fed the standard diet) is reported as “same amount of energy”. For the same molecule, the “higher muscle protein content (quadriceps)” value ([1]; 5 mg of 20E per kg body weight per day, trend, compared to HF treatment alone) was 5%, the “lower muscle triglyceride content (quadriceps)” value ([1]; 5 mg of 20E per kg body weight per day, trend, vs high-fat diet alone) was 26% and the “lean body mass (carcass defatted) / carcass weight” value ([1]; 5 mg of 20E per kg of body weight per day in food, vs high-fat diet alone) was “increase that has allowed the mice to return virtually to the same level as the normal diet”. For the same molecule, the “quantity of UCP2 gene transcripts in muscle” value (UCP2 gene transcripts) was “tendency to increased quantities” and the “quantity of CPT-1 gene transcripts in muscle” value [2] was “tends to restore transcript levels to those seen for the control diet”.

With `CC(C)(O)CC[C@@H](O)[C@](C)(O)[C@H]1CC[C@@]2(O)C3=CC(=O)[C@@H]4C[C@@H](O)[C@@H](O)C[C@]4(C)[C@H]3CC[C@]12C` [BIO101] the “effect on protein synthesis” value (C2C12 cells) was “not yet significant”, the “inhibition of myostatin gene expression” value ([3]; 0.1 μM) was “not yet significant” and the “inhibition of myostatin gene expression” value ([3]; concentration equal or higher than 0.5 μM) was “significant”. The “plasma exposure (maximal concentration from plot vs administered dose)” value ([4]; 175 mg administration (5 mg/kg for a 35 kg patient), read from FIG. 12B) was 0.4 µM, the Cmax ([4]; 100 mg dose) was 260 nM and 126 ng/mL and the Cmax ([4]; 350 mg dose) was 630 nM and 304 ng/mL. For the same molecule, the Cmax ([4]; 700 mg dose) was 780 nM and 374 ng/mL, the “treatment-related TEAEs (treatment-emergent adverse events)” value [5] was “high number of subjects with treatment-related TEAEs” and the EC50 (C2C12 myoblast) was 550 nM. The EC50 (C2C12 myoblast; Mus musculus, C2C12, 144 h) was 556 nM, the “% of efficacy on differentiation marker (first marker, fusion index)” value (C2C12 myoblast; at 0.26 μM, the plasma peak of a 100 mg dose, read from FIG. 10A) was 26% and the “% of efficacy on differentiation marker (second marker, number of nuclei per myotube)” value (C2C12 myoblast; at 0.26 μM, the plasma peak of a 100 mg dose, read from FIG. 10B) was 32%. The “gait speed in 400 meters walking test compared to placebo” value (sarcopenic patients; 350 mg daily, notably in a frail sub population of the FAS) was “improvement”, the “improvement in gait speed in 400 meters walking test compared to placebo” value (sarcopenic patients; full analyze set (FAS) population) was 0.09 m/s and the “improvement in gait speed in 400 meters walking test compared to placebo” value (sarcopenic patients; per protocol (PP) population, p<0.01) was 0.10 m/s.
